The supplement of paper PMC11208160

Assay: recombinant UMI read abundance after kanamycin selection (control-corrected) (log10(CPM+1)); higher = more efficient recombination; extreme values may be limits of the assay; sequences stand for … in AGTGCAGAGAAAATCGGCCAGTTTTCTCTGCCTGCAGTCCGCATGCCGTGGGACCCCTTGGGTTCTAACCTGTTGCCTAGATTTATGCAGCGGACTGCCTTTCTCCCAAAGTGATAAACCGG…AGGTTGGTTTCACT; site = the 11-nt donor
In short: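 Pooled Escherichia coli screen of donor and donor-binding-loop pairs for the IS621 bridge recombinase. Each pair sits with a 12-nt UMI on a plasmid carrying a promoterless kanamycin gene. The library was co-electroporated with a target plasmid encoding a fixed target and T7-inducible recombinase, then plated with IPTG (0.07 mM) plus kanamycin, or unselected, each in two replicates. Recombinant UMIs were PCR-amplified across the donor–target junction and sequenced. Counts became CPM, averaged over replicates, scaled by control-derived factors and reported as log10(CPM+1).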
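Also: IS621 bridge recombinase in Escherichia coli cells against a fixed T5 target plasmid.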

Sequence | recombinant UMI read abundance (log10)
TGGCCGGCATGGACCGGTTTTCCCGGTAATCCGTATTTGCC (site TGGCCGGCTGG) | 1.05
TGGCCGGCATGGACCGGTTTTCCCGGTAATCCGTATTTGCC (site TGGCCGGCTGT) | 0.00896
TGGCCGTCATGGACCGGTTTTCCCGGTAATCCGTATTTGGC (site TGGCCGACTGC) | 0
TGGCCGTCATGGACCGGTTTTCCCGGTAATCCGTATTTGGC (site TGGCCGCCTGC) | 0
TGGCCGTCATGGACCGGTTTTCCCGGTAATCCGTATTTGGC (site TGGCCGGCTGC) | 0
TGGCCGTCATGGACCGGTTTTCCCGGTAATCCGTATTTGGC (site TGGCCGTCTGC) | 0.431
TGGCGAGCATGGACCGGTTTTCCCGGTAATCCGTATTTGTT (site TGGCGAGCTAA) | 1.04
TGGCGGACATGGACCGGTTTTCCCGGTAATCCGTATTTGCA (site TGGCGGACTTG) | 1.67
TGGCTTACATGGACCGGTTTTCCCGGTAATCCGTATTTGGC (site TGGCTTACTGC) | 0.536
TGGGAATCATGGACCGGTTTTCCCGGTAATCCGTATTTGCG (site TAGGAATCTCG) | 1.35
TGGGAATCATGGACCGGTTTTCCCGGTAATCCGTATTTGCG (site TCGGAATCTCG) | 1.85
TGGGAATCATGGACCGGTTTTCCCGGTAATCCGTATTTGCG (site TGGGAATCTCG) | 2.5
TGGGAATCATGGACCGGTTTTCCCGGTAATCCGTATTTGCG (site TTGGAATCTCG) | 0.459
TGGGAGACATGGACCGGTTTTCCCGGTAATCCGTATTTGCA (site AGGAAGACTTG) | 0.261
TGGGAGACATGGACCGGTTTTCCCGGTAATCCGTATTTGCA (site TGGGAGACTTG) | 1.7
TGGGAGGCATGGACCGGTTTTCCCGGTAATCCGTATTTGAC (site TGGGAGGCTGT) | 1.46
TGGGTGCCATGGACCGGTTTTCCCGGTAATCCGTATTTGAC (site TGGGTGCCTGT) | 0
TGGTAGCCATGGACCGGTTTTCCCGGTAATCCGTATTTGTT (site TGGTAGCCTAA) | 0.256
TGGTCATCATGGACCGGTTTTCCCGGTAATCCGTATTTGAG (site TGGTCATCTCT) | 0.0288
TGGTGCCCATGGACCGGTTTTCCCGGTAATCCGTATTTGGT (site TGGTGCCCTAC) | 0.00779
TGGTGTCCATGGACCGGTTTTCCCGGTAATCCGTATTTGAG (site TGGTGTCCTCT) | 0.0312
TGGTTATCATGGACCGGTTTTCCCGGTAATCCGTATTTGTC (site TGGTTATCTGA) | 0.968
TGTAAATCATGGACCGGTTTTCCCGGTAATCCGTATTTGTT (site TGTAAATCTAA) | 1.13
TGTAACGCATGGACCGGTTTTCCCGGTAATCCGTATTTGTG (site TGTAACGCTCA) | 0.0113
TGTACAACATGGACCGGTTTTCCCGGTAATCCGTATTTGAC (site TGTACAACTGT) | 0.315

Sequence | recombinant UMI read abundance (log10)
TGTACAACATGGACCGGTTTTCCCGGTAATCCGTATTTGAC (site TGTACACCTGT) | 0
TGTACAACATGGACCGGTTTTCCCGGTAATCCGTATTTGAC (site TGTACAGCTGT) | 0
TGTACAACATGGACCGGTTTTCCCGGTAATCCGTATTTGAC (site TGTACATCTGT) | 0.295
TGTACACCATGGACCGGTTTTCCCGGTAATCCGTATTTGTC (site TGTACACCTGA) | 0
TGTACACCATGGACCGGTTTTCCCGGTAATCCGTATTTGTC (site TGTACACCTGC) | 0
TGTACACCATGGACCGGTTTTCCCGGTAATCCGTATTTGTC (site TGTACACCTGG) | 0
TGTACACCATGGACCGGTTTTCCCGGTAATCCGTATTTGTC (site TGTACACCTGT) | 0
TGTACAGCATGGACCGGTTTTCCCGGTAATCCGTATTTGAC (site TGTACAACTGT) | 0
TGTACAGCATGGACCGGTTTTCCCGGTAATCCGTATTTGAC (site TGTACACCTGT) | 0
TGTACAGCATGGACCGGTTTTCCCGGTAATCCGTATTTGAC (site TGTACAGCTGT) | 1.75
TGTACAGCATGGACCGGTTTTCCCGGTAATCCGTATTTGAC (site TGTACATCTGT) | 0.647
TGTACATCATGGACCGGTTTTCCCGGTAATCCGTATTTGAC (site TGTACAACTGT) | 0
TGTACATCATGGACCGGTTTTCCCGGTAATCCGTATTTGAC (site TGTACACCTGT) | 0
TGTACATCATGGACCGGTTTTCCCGGTAATCCGTATTTGAC (site TGTACAGCTGT) | 0
TGTACATCATGGACCGGTTTTCCCGGTAATCCGTATTTGAC (site TGTACATCTGT) | 0
TGTAGCTCATGGACCGGTTTTCCCGGTAATCCGTATTTGAA (site TGTAGCTCTTT) | 0.301
TGTAGCTCATGGACCGGTTTTCCCGGTAATCCGTATTTGGG (site TGTAGCTCTCC) | 0.0269
TGTAGGACATGGACCGGTTTTCCCGGTAATCCGTATTTGAA (site TGTAGGACTTT) | 0.373
TGTCAAACATGGACCGGTTTTCCCGGTAATCCGTATTTGGG (site TGTCAAACTCC) | 0.00984
TGTCAGACATGGACCGGTTTTCCCGGTAATCCGTATTTGTG (site TGTCAGACTCA) | 0.0321
TGTCCTACATGGACCGGTTTTCCCGGTAATCCGTATTTGGA (site TGTCCTACTTC) | 0.0197
TGTCCTGCATGGACCGGTTTTCCCGGTAATCCGTATTTGTT (site TGTCCTGCTAA) | 0.011
TGTCGCGCATGGACCGGTTTTCCCGGTAATCCGTATTTGCA (site TGTCGCGCTTG) | 0.897
TGTCGGACATGGACCGGTTTTCCCGGTAATCCGTATTTGCG (site TGTCGGACTCG) | 1.4
TGTGCACCATGGACCGGTTTTCCCGGTAATCCGTATTTGAC (site TGTACACCTGT) | 0

Sequence | recombinant UMI read abundance (log10)
TGTGCACCATGGACCGGTTTTCCCGGTAATCCGTATTTGAC (site TGTCCACCTGT) | 0.0317
TGTGCACCATGGACCGGTTTTCCCGGTAATCCGTATTTGAC (site TGTGCACCTGT) | 0
TGTGCACCATGGACCGGTTTTCCCGGTAATCCGTATTTGAC (site TGTTCACCTGT) | 0
TGTGCCCCATGGACCGGTTTTCCCGGTAATCCGTATTTGTA (site TGTACCCCTTA) | 0.126
TGTGCCCCATGGACCGGTTTTCCCGGTAATCCGTATTTGTA (site TGTCCCCCTTA) | 0.0113
TGTGCCCCATGGACCGGTTTTCCCGGTAATCCGTATTTGTA (site TGTGCCCCTTA) | 0.0922
TGTGCCCCATGGACCGGTTTTCCCGGTAATCCGTATTTGTA (site TGTTCCCCTTA) | 0.0156
TGTGCTGCATGGACCGGTTTTCCCGGTAATCCGTATTTGAA (site TGTGCTGCTTT) | 0.011
TGTGGAACATGGACCGGTTTTCCCGGTAATCCGTATTTGTT (site AGTGGAACTAA) | 0.0127
TGTGGAACATGGACCGGTTTTCCCGGTAATCCGTATTTGTT (site CGTGGAACTAA) | 0.0659
TGTGGAACATGGACCGGTTTTCCCGGTAATCCGTATTTGTT (site GGTGGAACTAA) | 0
TGTGGAACATGGACCGGTTTTCCCGGTAATCCGTATTTGTT (site TGTGGAACTAA) | 0.511
TGTGTAACATGGACCGGTTTTCCCGGTAATCCGTATTTGAC (site TGTGTAACTGT) | 0
TGTTAGGCATGGACCGGTTTTCCCGGTAATCCGTATTTGGT (site TGATAGGCTAC) | 0.0087
TGTTAGGCATGGACCGGTTTTCCCGGTAATCCGTATTTGGT (site TGCTAGGCTAC) | 0.304
TGTTAGGCATGGACCGGTTTTCCCGGTAATCCGTATTTGGT (site TGGTAGGCTAC) | 0.017
TGTTAGGCATGGACCGGTTTTCCCGGTAATCCGTATTTGGT (site TGTTAGGCTAC) | 0.273
TGTTCACCATGGACCGGTTTTCCCGGTAATCCGTATTTGAC (site TGTACACCTGT) | 0
TGTTCACCATGGACCGGTTTTCCCGGTAATCCGTATTTGAC (site TGTCCACCTGT) | 0
TGTTCACCATGGACCGGTTTTCCCGGTAATCCGTATTTGAC (site TGTGCACCTGT) | 0
TGTTCACCATGGACCGGTTTTCCCGGTAATCCGTATTTGAC (site TGTTCACCTGT) | 0
TGTTCCCCATGGACCGGTTTTCCCGGTAATCCGTATTTGTG (site TGTTCCCCTAA) | 0.00613
TGTTCCCCATGGACCGGTTTTCCCGGTAATCCGTATTTGTG (site TGTTCCCCTCA) | 0.0316
TGTTCCCCATGGACCGGTTTTCCCGGTAATCCGTATTTGTG (site TGTTCCCCTGA) | 0
TGTTCCCCATGGACCGGTTTTCCCGGTAATCCGTATTTGTG (site TGTTCCCCTTA) | 0
